Reference: US12729192B2, “CDK9 inhibitor and use thereof” (PHARMABLOCK SCIENCES (NANJING), INC., priority 2020, dated 2026)

Experiments:
Assay type in all cases: biochemical
Conditions in all cases: 10 μM ATP, 2 h at room temperature
[1] = biological target: T1, CDK2 (Homo sapiens, UniProt P24941); assay: CDK2 kinase activity inhibition (ADP-Glo)
T1 construct: purchased Carna Biosciences, Inc
Protocol: (§1) CDK9 kinase was manufactured by the company or commercially available. CDK1, CDK2 and CDK7 were purchased from Carna Biosciences, Inc. ADP-Glo™ kit was purchased from Promega Corporation. Dithiothreitol (DTT), Tween-20, dimethylsulfoxide (DMSO), bovine serum albumin (BSA) and Tris base were obtained from Sigma at the available highest level of purity.
(§2) General procedures for CDK inhibition determination: The determination was performed in a buffer consisting of 50 μM DTT, 0.1% BSA, 40 mM Tris-HCl pH=7.5 and 20 mM MgCl2. The compound dissolved in DMSO and CDK enzymes were diluted with the buffer. 1 μL of the compound solution in 5% DMSO and 2 μL of the CDK enzyme solution were added to a white low-volume 384-well microtiter plate and incubated for 20 min at room temperature. Ultra pure ATP and the substrate polypeptide (purchased from GenScript Biotech Corporation) were diluted together into the buffer and added to a mixed solution of the compound and the enzyme, 2 μL per well. They were incubated for 2 h at room temperature.
(§3) After the reaction was completed, 5 μL of ADP-Glo™ reagent was added to each well and incubated for 40 min at room temperature, and then 10 μL of test reagent was added to each well and incubated for 30 mi at room temperature. Chemical luminescence values were measured by using a Tecan (Männedorf, Switzerland) multifunctional plate reader Spark for plate reading. The IC50 value of the inhibitor was obtained by fitting the chemical luminescence intensity ratio in the S-shaped dosage reaction curve using Prism 7 (La Jolla, 15 CA) relative to the concentration of the inhibitor.

[2] = biological target: T2, CDK7 (Homo sapiens, UniProt P50613); assay: CDK7 kinase activity inhibition (ADP-Glo)
T2 construct: purchased Carna Biosciences, Inc
T2 sequence (P50613 whole entry): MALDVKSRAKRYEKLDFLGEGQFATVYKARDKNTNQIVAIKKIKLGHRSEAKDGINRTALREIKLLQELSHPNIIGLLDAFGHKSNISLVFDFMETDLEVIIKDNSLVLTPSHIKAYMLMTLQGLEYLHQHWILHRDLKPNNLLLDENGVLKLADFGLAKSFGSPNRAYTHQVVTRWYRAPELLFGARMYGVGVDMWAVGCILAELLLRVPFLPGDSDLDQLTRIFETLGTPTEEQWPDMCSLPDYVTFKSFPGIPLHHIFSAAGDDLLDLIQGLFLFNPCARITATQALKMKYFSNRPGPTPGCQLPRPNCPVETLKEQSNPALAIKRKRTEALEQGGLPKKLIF
T2 sequence (P51946 whole entry partner): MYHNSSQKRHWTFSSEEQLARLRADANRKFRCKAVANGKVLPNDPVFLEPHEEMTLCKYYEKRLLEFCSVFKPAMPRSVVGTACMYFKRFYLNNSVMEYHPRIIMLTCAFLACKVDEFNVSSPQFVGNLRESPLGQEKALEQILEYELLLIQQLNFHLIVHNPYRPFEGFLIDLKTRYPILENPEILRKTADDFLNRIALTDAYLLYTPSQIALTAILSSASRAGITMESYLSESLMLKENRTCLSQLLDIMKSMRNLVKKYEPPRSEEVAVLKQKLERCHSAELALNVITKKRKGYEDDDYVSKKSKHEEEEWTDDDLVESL
T2 sequence (P51948 whole entry partner): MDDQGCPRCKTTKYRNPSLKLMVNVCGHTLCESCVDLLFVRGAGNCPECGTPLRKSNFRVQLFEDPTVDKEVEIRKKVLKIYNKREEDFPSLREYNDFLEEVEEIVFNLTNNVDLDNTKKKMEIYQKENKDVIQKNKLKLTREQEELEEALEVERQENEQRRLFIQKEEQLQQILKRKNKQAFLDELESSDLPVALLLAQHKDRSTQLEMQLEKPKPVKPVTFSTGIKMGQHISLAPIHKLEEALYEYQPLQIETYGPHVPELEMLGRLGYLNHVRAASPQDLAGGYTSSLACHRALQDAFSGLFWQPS
Protocol: as §1, §2, §3

[3] = biological target: CDK9 (Homo sapiens, UniProt P50750); assay: CDK9 kinase activity inhibition (ADP-Glo)
CDK9, sequence (P50750 whole entry): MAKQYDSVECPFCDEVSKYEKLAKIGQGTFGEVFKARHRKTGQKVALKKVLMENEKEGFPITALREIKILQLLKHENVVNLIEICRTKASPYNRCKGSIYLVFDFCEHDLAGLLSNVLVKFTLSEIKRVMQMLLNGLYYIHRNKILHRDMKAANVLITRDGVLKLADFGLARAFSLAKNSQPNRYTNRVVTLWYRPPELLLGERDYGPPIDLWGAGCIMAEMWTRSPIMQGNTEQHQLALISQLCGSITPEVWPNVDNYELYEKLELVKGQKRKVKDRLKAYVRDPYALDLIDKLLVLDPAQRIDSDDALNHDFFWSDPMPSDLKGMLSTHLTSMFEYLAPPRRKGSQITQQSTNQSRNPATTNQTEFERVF
CDK9, sequence (O60563 whole entry partner): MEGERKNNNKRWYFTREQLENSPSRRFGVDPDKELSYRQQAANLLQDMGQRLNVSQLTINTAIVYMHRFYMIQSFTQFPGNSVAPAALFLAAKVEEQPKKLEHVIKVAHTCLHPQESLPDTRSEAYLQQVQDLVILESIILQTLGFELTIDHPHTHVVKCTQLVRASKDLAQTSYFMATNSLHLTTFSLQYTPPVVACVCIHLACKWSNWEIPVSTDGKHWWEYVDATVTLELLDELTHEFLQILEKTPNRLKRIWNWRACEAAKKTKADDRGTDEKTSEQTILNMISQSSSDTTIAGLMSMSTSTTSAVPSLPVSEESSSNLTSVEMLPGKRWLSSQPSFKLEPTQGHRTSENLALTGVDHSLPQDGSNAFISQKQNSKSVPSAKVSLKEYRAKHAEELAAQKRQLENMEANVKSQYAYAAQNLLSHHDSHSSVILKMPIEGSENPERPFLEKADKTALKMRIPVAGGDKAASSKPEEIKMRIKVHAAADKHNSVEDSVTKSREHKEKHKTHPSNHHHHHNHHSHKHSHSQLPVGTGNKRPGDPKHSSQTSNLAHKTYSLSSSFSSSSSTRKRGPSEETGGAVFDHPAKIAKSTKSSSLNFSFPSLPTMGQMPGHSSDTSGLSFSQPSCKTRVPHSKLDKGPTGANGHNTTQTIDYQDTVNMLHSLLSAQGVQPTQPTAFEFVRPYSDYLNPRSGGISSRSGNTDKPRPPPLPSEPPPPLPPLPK
Protocol: as §1, §2, §3

| SMILES | IC50 [1] | IC50 [2] | IC50 [3] |
| --- | --- | --- | --- |
| CC(=O)NC[C@H]1CCC(F)(F)CN1C(=O)c1nc(Nc2cc3[nH]ccc3cn2)ccc1C [Compound 12, (R)—N-((1-(6-((1H-pyrrolo[3,2-c]pyridin-6-yl)amino)-3-methylpyridine-2-carbonyl)-5,5-difluoropiperidin-2-yl)methyl)acetamide] | > 10000 nM | > 10000 nM | 163 nM |
| CC(=O)NC[C@H]1CCC(F)(F)CN1C(=O)c1nc(Nc2cc(C(C)(C)C)sn2)ccc1C [Compound 13, (R)—N-((1-(6-((5-(t-butyl)isothiazol-3-yl)amino)-3-methylpyridine-2-carbonyl)-5,5-difluoropiperidin-2-yl)methyl)acetamide] | 704 nM | > 10000 nM | 64 nM |
| CC(=O)NC[C@H]1CCC(F)(F)CN1C(=O)c1nc(Nc2cc(-c3cnn4c3CCC4)c(F)cn2)ccc1C [Compound 14, (R)—N-((1-(6-((4-(5,6-dihydro-4H-pyrrolo[1,2-b]pyrazol-3-yl)-5-fluoropyridin-2-yl)amino)-3-methylpyridine-2-carbonyl)-5,5-difluoropiperidin-2-yl)methyl)acetamide] | 1600 nM | 1880 nM | 107 nM |
| CC(=O)NC[C@H]1CCC(F)(F)CN1C(=O)c1nc(Nc2cc(OC3CCC3)ccn2)ccc1C [Compound 16, (R)—N-((1-(6-((4-cyclobutoxypyridin-2-yl)amino)-3-methylpyridine-2-carbonyl)-5,5-difluoropiperidin-2-yl)methyl)acetamide] | 6350 nM | > 10000 nM | 54.6 nM |
| CC(=O)NC[C@H]1CCC(F)(F)CN1C(=O)c1nc(Nc2cc(-c3cnn4c3CCC4)ccn2)ccc1C [Compound 18, (R)—N-((1-(6-((4-(5,6-dihydro-4H-pyrrolo[1,2-b]pyrazol-3-yl)pyridin-2-yl)amino)-3-methylpyridine-2-carbonyl)-5,5-difluoropiperidin-2-yl)methyl)acetamide] | 3310 nM | – | 33.6 nM |
| CC(=O)NC[C@H]1CCC(F)(F)CN1C(=O)c1nc(Nc2cc(C3CCCC3)ccn2)ccc1C [Compound 20, (R)—N-((1-(6-((4-cyclopentylpyridin-2-yl)amino)-3-methylpyridine-2-carbonyl)-5,5-difluoropiperidin-2-yl)methyl)acetamide] | 1230 nM | – | 44.1 nM |
| CC(=O)NC[C@H]1CCC(F)(F)CN1C(=O)c1nc(Nc2cc(N3CCCC3)ccn2)ccc1C [Compound 21, (R)—N-((5,5-difluoro-1-(3-methyl-6-((4-(pyrrolidin-1-yl)pyridin-2-yl)amino)pyridine-2-carbonyl)piperidin-2-yl)methyl)acetamide] | > 10000 nM | – | 182 nM |
| CC(=O)NC[C@H]1CCC(F)(F)CN1C(=O)c1nc(Nc2ncccn2)ccc1C [Compound 23, (R)—N-((5,5-difluoro-1-(3-methyl-6-(pyrimidin-2-ylamino)pyridine-2-carbonyl)piperidin-2-yl)methyl)acetamide] | > 10000 nM | – | 4620 nM |
| CC(=O)NC[C@H]1CCC(F)(F)CN1C(=O)c1nc(Nc2ccncn2)ccc1C [Compound 25, (R)—N-((5,5-difluoro-1-(3-methyl-6-(pyrimidin-4-ylamino)pyridine-2-carbonyl)piperidin-2-yl)methyl)acetamide] | > 10000 nM | – | 218 nM |
| CC(=O)NC[C@H]1CCC(F)(F)CN1C(=O)c1nc(Nc2cnccn2)ccc1C [Compound 26, (R)—N-((5,5-difluoro-1-(3-methyl-6-(pyrazin-2-ylamino)pyridine-2-carbonyl)piperidin-2-yl)methyl)acetamide] | 3610 nM | – | 17.8 nM |
| CC(=O)NC[C@H]1CCC(F)(F)CN1C(=O)c1nc(Nc2ncccc2OC(F)(F)F)ccc1C [Compound 29, (R)—N-((5,5-difluoro-1-(3-methyl-6-((3-(trifluoromethoxy)pyridin-2-yl)amino)pyridine-2-carbonyl)piperidin-2-yl)methyl)acetamide] | > 10000 nM | – | 5710 nM |
| CCOc1ccnc(Nc2ccc(C)c(C(=O)N3CC(F)(F)CC[C@@H]3CN)n2)c1 [Compound 37, (R)-(2-(aminomethyl)-5,5-difluoropiperidin-1-yl)(6-((4-ethoxypyridin-2-yl)amino)-3-methylpyridin-2-yl)methanone] | 3560 nM | – | 26.6 nM |
| Cc1ccc(Nc2cc(OC(F)(F)F)ccn2)nc1C(=O)N1CCCC(F)(F)CC1 [Compound 38, (4,4-Difluoroazepin-1-yl)(3-methyl-6-((4-(trifluoromethoxy)pyridin-2-yl)amino)pyridin-2-yl)methanone] | 447 nM | – | 267 nM |
| CC(=O)N[C@@H]1CN(C(=O)c2nc(Nc3cc(OC(F)(F)F)ccn3)ccc2C)CC(F)(F)C1 [Compound 42, (S)—N-(5,5-difluoro-1-(3-methyl-6-((4-(trifluoromethoxy)pyridin-2-yl)amino)pyridine-2-carbonyl)piperidin-3-yl)acetamide] | 361 nM | – | 34.8 nM |
| CC(=O)N[C@H]1CN(C(=O)c2nc(Nc3cc(OC(F)(F)F)ccn3)ccc2C)CC(F)(F)C1 [Compound 43, (R)—N-(5,5-difluoro-1-(3-methyl-6-((4-(trifluoromethoxy)pyridin-2-yl)amino)pyridine-2-carbonyl)piperidin-3-yl)acetamide] | > 10000 nM | – | 167 nM |
| CC(=O)NCC1CCC(F)(F)CN1C(=O)c1nc(Nc2cc(OC(F)(F)F)ccn2)ccc1C (centres unmarked) [Compound 44, N-((5,5-difluoro-1-(3-methyl-6-((4-(trifluoromethoxy)pyridin-2-yl)amino)pyridine-2-carbonyl)piperidin-2-yl)methyl)acetamide] | 679 nM | – | 23 nM |
| CC(=O)NC[C@H]1CCCCN1C(=O)c1nc(Nc2cc(OC(F)(F)F)ccn2)ccc1C [Compound 45, (R)—N-((1-(3-methyl-6-((4-(trifluoromethoxy)pyridin-2-yl)amino)pyridine-2-carbonyl)piperidin-2-yl)methyl)acetamide] | 884 nM | – | 19.9 nM |
| CCNC(=O)C1CCC(F)(F)CN1C(=O)c1nc(Nc2cc(OC(F)(F)F)ccn2)ccc1C (centres unmarked) [Compound 49, N-ethyl-5,5-difluoro-1-(3-methyl-6-((4-(trifluoromethoxy)pyridin-2-yl)amino)pyridine-2-carbonyl)piperidine-2-carboxamide] | 3210 nM | – | 107 nM |
| CC(=O)N[C@@H]1C[C@H](NC(=O)c2nc(Nc3cc(OC(F)(F)F)ccn3)ccc2C)CC(F)(F)C1 [Compound 50, N-((1S,5R)-5-acetamido-3,3-difluorocyclohexyl)-3-methyl-6-((4-4-trifluoromethoxypyridin-2-yl)amino)pyridine-2-carbonylamide] | > 10000 nM | – | 573 nM |
| CC(=O)N(C)C[C@H]1CCC(F)(F)CN1C(=O)c1nc(Nc2cc(OC(F)(F)F)ccn2)ccc1C [Compound 52, (R)—N-((5,5-difluoro-1-(3-methyl-6-((4-(trifluoromethoxy)pyridin-2-yl)amino)pyridine-2-carbonyl)piperidin-2-yl)methyl)-N-methylacetamide] | 658 nM | – | 14.6 nM |
| CNC(=O)c1ccnc(Nc2ccc(C)c(C(=O)N3CC(F)(F)CC[C@@H]3CNC(C)=O)n2)c1 [Compound 55, (R)-2-((6-(2-(acetamidomethyl)-5,5-difluoropiperidine-1-carbonyl)-5-methylpyridin-2-yl)amino)-N-methyl isonicotinamide] | > 10000 nM | – | 28.3 nM |
| CC(=O)NC[C@H]1CCC(F)(F)CN1S(=O)(=O)c1cc(Nc2cc(OC(F)(F)F)ccn2)ccc1C [Compound 58, (R)—N-((5,5-difluoro-1-((2-methyl-5-((4-(trifluoromethoxy)pyridin-2-yl)amino)phenyl)sulfonyl)piperidin-2-yl)methyl)acetamide] | > 10000 nM | – | > 10000 nM |
| CC(=O)NC[C@H]1CCC(F)(F)CN1Cc1nc(Nc2cc(OC(F)(F)F)ccn2)ccc1C [Compound 62, (R)—N-((5,5-difluoro-1-((3-methyl-6-((4-(trifluoromethoxy)pyridin-2-yl)amino)pyridin-2-yl)methyl)piperidin-2-yl)methyl)acetamide] | > 10000 nM | – | 531 nM |
| CC(C)(C)OC(=O)NC[C@H]1CCC(F)(F)CN1C(=O)c1nc(Nc2cc(OC(F)(F)F)ccn2)ccc1F [Compound 66] | 1260 nM | – | 647 nM |
| CC(=O)NC[C@H]1CCC(F)(F)CN1C(=O)c1cc(Nc2cc(OC(F)(F)F)ccn2)ncc1C [Compound 72, (R)—N-((5,5-difluoro-1-(5-methyl-2-((4-(trifluoromethoxy)pyridin-2-yl)amino)isonicotinoyl)piperidin-2-yl)methyl)acetamide] | > 10000 nM | – | 1310 nM |
| CC(=O)NC[C@H]1CCC(F)(F)CN1C(=O)c1nc(Nc2cc(OC(F)(F)F)ccn2)ncc1C [Compound 76, (R)—N-((5,5-difluoro-1-(5-methyl-2-((4-(trifluoromethoxy)pyridin-2-yl)amino)pyrimidine-4-carbonyl)piperidin-2-yl)methyl)acetamide] | 5780 nM | – | 18.4 nM |
